Reference: publication PMC6804044, “Design, Synthesis and Biological Evaluation of Pentacyclic Triterpene Derivatives: Optimization of Anti-ABL Kinase Activity” (Molecules, 2019)
Read-outs that look alike come from different tables or passages of the source.

How the values were obtained:
CML cell line K562 = assay: MTT cell viability assay, K562; format: cell-based, human; conditions: for IC50: Homo sapiens, K562, 24 h, MTT, 24 h exposure, read-out: IC50 Values, K562 Cell Line; for SI (selectivity index): ratio of the IC50 between PBMC and K562 cells
Method: A549 human lung carcinoma and HeLa human cervical carcinoma cell lines were cultured in Dulbecco’s Modified Eagle Medium (DMEM). […] In experiments, all cancer cell lines and PBMC were cultured in 24-well and 96-well plates (Iwaki brand Asahi Glass, Chiba, Japan) at 2 × 10^4 cells/mL and 1 × 10^6 cells/mL concentrations, respectively for 24 h.
(§1) The cells were then stained with MTT solution and incubated for additional 4 h. At the end of this period, supernatants were removed and 100 μL DMSO was added to each well to solubilize the formazan crystals. The absorbance of the solution was determined on the Infinitive M1000 (Tecan, Mannedorf, Switzerland) plate reader at a wavelength of 550 nm with background subtraction at 630 nm.

[1] = system: peripheral blood mononuclear cells (PBMC); assay: MTT cell viability assay, PBMC; format: cell-based; conditions: PBMC, 24 h exposure
Method: (§2) A549 human lung carcinoma and HeLa human cervical carcinoma cell lines were cultured in Dulbecco’s Modified Eagle Medium (DMEM). MCF7 human breast cancer and leukemic (K562, HL-60, MT-2 and Jurkat) cells, and PBMC (Precision Bioservices, Frederic, MD, USA) were cultured in RPMI 1640. All media were purchased from FUJIFILM Wako (Osaka, Japan) and supplemented with 10% fetal bovine serum (FBS) (Sigma-Aldrich, St. Louis, MO, USA) and 89 μg/mL streptomycin (Meiji Seika Pharma, Tokyo, Japan) at 37 °C in a humid atmosphere and 5% CO2. In experiments, all cancer cell lines and PBMC were cultured in 24-well and 96-well plates (Iwaki brand Asahi Glass, Chiba, Japan) at 2 × 10^4 cells/mL and 1 × 10^6 cells/mL concentrations, respectively for 24 h.
as §1, with “The cells were exposed to various concentrations (1–100 μM) of the compounds for 24 h at 37 °C. The cells” for “The cells”

ABL1 kinase [2] = target: T1, ABL1 kinase (Homo sapiens, UniProt P00519); conditions: a value in the previous paper; cited from earlier work
T1 construct: purchased Promega, Madison, WI, USA

MCF7 human breast cancer = assay: MTT cell viability assay, MCF7; format: cell-based; conditions: 24 h exposure
Method: as §2
as §1, with “The cells were exposed to various concentrations (1–100 μM) of the compounds for 24 h at 37 °C. The cells” for “The cells”

ABL1 kinase [3] = target: T1, ABL1 kinase; assay: ABL1 kinase inhibition (ADP-Glo Kinase Assay); format: biochemical; conditions: ADP-Glo, 1 h incubation, room temperature
Method: The ABL1 kinase profiling assay protocol was applied according to the manufacturer`s instructions (Promega, Madison, WI, USA) with the modification proposed in [36]. In this system, the ABL1 kinase and its substrate were diluted with 95 µL 2.5x Kinase Buffer and 15 µL of 100 µM ATP solutions, respectively. Then, the reaction of ABL1 kinase was performed using 2 µL of the compound solution at varying concentrations (0.1–30 µM), 4 µL of kinase working stock, and 4 µL of ATP/substrate working stock in the 384-well plate. After 1 h of incubation at room temperature, the activity of the ABL1 kinase was detected using the ADP-Glo Kinase Assay (Promega, Madison, WI, USA) and the inhibitory kinase activity of compounds in dose-response mode was measured by the Infinitive M1000 luminescence plate reader (Tecan, Groding, Austria).

[4] = system: A549 human lung carcinoma; assay: MTT cell viability assay, A549; format: cell-based
Method: as §2
as §1, with “The cells were exposed to various concentrations (1–100 μM) of the compounds for 24 h at 37 °C. The cells” for “The cells”

Jurkat = assay: MTT cell viability assay, Jurkat; format: cell-based; conditions: Homo sapiens, 24 h exposure
Method: as §2
as §1, with “The cells were exposed to various concentrations (1–100 μM) of the compounds for 24 h at 37 °C. The cells” for “The cells”

[5] = system: HeLa human cervical carcinoma; assay: MTT cell viability assay, HeLa; format: cell-based; conditions: 24 h exposure
Method: as §2
as §1, with “The cells were exposed to various concentrations (1–100 μM) of the compounds for 24 h at 37 °C. The cells” for “The cells”

[6] = system: ERK1/2 and phosphorylated ERK1/2 in K562 cells; assay: Immunoblot analysis of ERK signaling in K562; format: cell-based, human; conditions: K562, 10 μM, 6 h
Method: After 6 h of treatment at 37 °C, the cells were lysed in PBS-Laemmli sample buffer and then, immunoblot analysis was conducted using phospho-specific-p44/42 MAPK (Erk1/2) (Thr202/Tyr204) (D13.14.4E) XP Rabbit mAb (1:1000) (Cell Signaling Technology, Danvers, MA, USA) or anti-β-actin clone AC-15 (Sigma-Aldrich, St. Louis, MO, USA). For immunoreactivity detection, the chemiluminescence method was performed as previously described. The band intensity was measured using the ImageJ software (NIH, Bethesda, MD, USA).

MT-2 = assay: MTT cell viability assay, MT-2; format: cell-based; conditions: Homo sapiens, MT2, 24 h exposure
Method: as §2
as §1, with “The cells were exposed to various concentrations (1–100 μM) of the compounds for 24 h at 37 °C. The cells” for “The cells”

HL-60 = assay: MTT cell viability assay, HL-60; format: cell-based; conditions: Homo sapiens, 24 h exposure
Method: as §2
as §1, with “The cells were exposed to various concentrations (1–100 μM) of the compounds for 24 h at 37 °C. The cells” for “The cells”

K562 cells = assay: Cell death detection (Hoechst 33342/annexin V/ethidium homodimer III staining); format: cell-based, human; conditions: K562, IC50 concentration, 8 h
Method: The cells were then briefly washed twice with 1 × binding buffer. A staining solution containing 50 μL of 1 × binding buffer and 5 μL of FITC-Annexin V solution, 5 μL of ethidium homodimer III solution, or 5 μL of Hoechst 33342 solution was added, and incubated for 15 min at room temperature in the dark. Then, the cells were washed with 1 × binding buffer, and analyzed by the all-in-one fluorescence microscope Biorevo Fluorescence BZ-9000 (Keyence, Osaka, Japan). The number of healthy cells (Hoechst 33342), apoptotic cells (Annexin V), late apoptotic or necrotic cells (Annexin V and Ethidium homodimer III) and necrotic cells (Ethidium homodimer III) were counted as previously described.

T1 sequence (P00519 whole entry): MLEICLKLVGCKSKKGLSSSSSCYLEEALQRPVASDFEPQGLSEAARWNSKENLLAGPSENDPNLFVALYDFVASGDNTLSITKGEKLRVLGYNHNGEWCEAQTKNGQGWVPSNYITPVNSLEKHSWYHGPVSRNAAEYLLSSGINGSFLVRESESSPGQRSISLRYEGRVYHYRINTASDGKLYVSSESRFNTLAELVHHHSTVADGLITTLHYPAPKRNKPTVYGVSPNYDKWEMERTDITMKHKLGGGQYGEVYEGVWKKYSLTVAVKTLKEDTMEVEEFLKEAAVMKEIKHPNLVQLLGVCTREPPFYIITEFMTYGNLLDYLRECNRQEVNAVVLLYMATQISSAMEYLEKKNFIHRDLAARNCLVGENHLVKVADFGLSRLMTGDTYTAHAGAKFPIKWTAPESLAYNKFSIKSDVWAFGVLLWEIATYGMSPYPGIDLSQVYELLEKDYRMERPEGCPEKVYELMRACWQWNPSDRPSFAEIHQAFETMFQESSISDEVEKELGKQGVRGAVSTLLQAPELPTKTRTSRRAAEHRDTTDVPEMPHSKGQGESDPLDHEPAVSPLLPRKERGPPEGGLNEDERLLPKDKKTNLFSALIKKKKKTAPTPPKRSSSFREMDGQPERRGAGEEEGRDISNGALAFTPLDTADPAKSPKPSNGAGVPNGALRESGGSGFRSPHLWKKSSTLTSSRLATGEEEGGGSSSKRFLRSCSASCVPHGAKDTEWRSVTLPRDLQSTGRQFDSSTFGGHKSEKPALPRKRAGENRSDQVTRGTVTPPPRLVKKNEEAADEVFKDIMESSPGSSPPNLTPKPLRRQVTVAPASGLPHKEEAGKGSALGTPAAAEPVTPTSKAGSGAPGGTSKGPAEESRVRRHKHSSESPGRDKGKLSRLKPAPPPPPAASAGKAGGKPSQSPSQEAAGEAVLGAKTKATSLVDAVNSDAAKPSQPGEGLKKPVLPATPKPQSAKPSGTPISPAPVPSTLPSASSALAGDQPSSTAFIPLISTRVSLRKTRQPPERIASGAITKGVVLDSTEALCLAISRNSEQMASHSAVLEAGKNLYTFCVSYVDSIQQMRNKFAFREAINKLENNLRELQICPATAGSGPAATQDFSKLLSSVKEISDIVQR

SMILES | IC50 (CML cell line K562) [µM] | SI (selectivity index) (CML cell line K562) | IC50 [1] [µM] | IC50 (ABL1 kinase [2]) [µM] | IC50 (MCF7 human breast cancer) [µM] | IC50 (ABL1 kinase [3]) [µM] | activity against A549 cell line at 100 µM ([4]; 100 µM) | IC50 ([4]; Homo sapiens, A549, MTT, 24 h exposure) [µM] | IC50 (Jurkat) [µM] | IC50 [5] [µM] | ERK phosphorylation (phosphorylated ERK1/2) [6] | amount of ERK1/2 [6] | IC50 (MT-2) [µM] | IC50 (HL-60) [µM] | melting point [°C] | apoptotic effects on CML cell line (K562 cells) [%] | late apoptotic/necrotic effects (K562 cells) [%]
CC1(C)CC[C@]2(C(=O)OCc3ccccc3)CC[C@]3(C)C(=CC[C@@H]4[C@@]5(C)CC[C@H](O)[C@@](C)(C=O)[C@@H]5CC[C@]43C)[C@@H]2C1 [Compound 1c, benzyl ester of gypsogenin] | 8.94 ± 1.73 | >11.19 | > 100 | 8.71 ± 1.14 |  |  |  |  |  |  |  |  |  |  |  |  | 
CC1(C)CC[C@]2(C(=O)OCc3cc(C(F)(F)F)cc(C(F)(F)F)c3)CC[C@]3(C)C(=CC[C@@H]4[C@@]5(C)CC[C@H](O)[C@@](C)(C=O)[C@@H]5CC[C@]43C)[C@@H]2C1 [GP2, Gypsogenin 3,5-bis(trifluromethyl)benzyl ester] | 4.78 ± 1.25 | 11.04 | 52.8 ± 3.82 |  | 51.6 ± 4.75 | 7.19 ± 0.65 | inactive | > 100 | 9.14 ± 0.71 | 35.3 ± 2.84 | inhibitory effect of ERK phosphorylation | moderately decreased | 36.8 ± 4.21 | 5.27 ± 0.42 | 85 to 87 | 24 | 4.5
